Test results reported in patent US20260285850A1, “SUBSTITUTED OXAZOLIDINONES AND IMIDAZOLINONES AS HERBICIDES” (FMC CORPORATION, priority 2023, published 2026).

Legend:
Format in all cases: in vivo
[1] = system: barnyardgrass (Echinochloa crus-galli); experiment: Test A preemergence soil spray, visual injury rating 0-100; conditions: 10 days, 0 = no effect, 100 = complete control
Method in brief: (§1)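 Compounds formulated in a non-phytotoxic solvent with surfactant are sprayed onto soil of freshly planted loam-sand pots ahead of emergence, or onto emerged plants 2-10 cm tall. After a 10-day greenhouse period, each species is scored visually for injury against untreated controls.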

[2] = system: blackgrass (Alopecurus myosuroides); experiment: as above; conditions: 10 days, 0 = no effect, 100 = complete control
Method in brief: as §1

corn (Zea mays) [3] = experiment: as above; conditions: 10 days, 0 = no effect, 100 = complete control
Method in brief: as §1

[4] = system: green foxtail (Setaria viridis); experiment: as above; conditions: 10 days, 0 = no effect, 100 = complete control
Method in brief: as §1

kochia (Bassia scoparia) [5] = experiment: as above; conditions: 10 days, 0 = no effect, 100 = complete control
Method in brief: as §1

[6] = system: oat, wild (wild oat, Avena fatua); experiment: as above; conditions: 10 days, 0 = no effect, 100 = complete control
Method in brief: as §1

[7] = system: palmer (palmer amaranth, palmer pigweed, Amaranthus palmeri); experiment: as above; conditions: 10 days, 0 = no effect, 100 = complete control
Method in brief: as §1

[8] = system: ragweed (common ragweed, Ambrosia artemisiifolia); experiment: as above; conditions: 10 days, 0 = no effect, 100 = complete control
Method in brief: as §1

soybean (Glycine max) [9] = experiment: as above; conditions: 10 days, 0 = no effect, 100 = complete control
Method in brief: as §1

[10] = system: wheat (Triticum aestivum); experiment: as above; conditions: 10 days, 0 = no effect, 100 = complete control
Method in brief: as §1

[11] = system: barnyardgrass (Echinochloa crus-galli); experiment: Test A postemergence application, visual injury rating 0-100; conditions: 10 days
Method in brief: as §1

[12] = system: blackgrass (Alopecurus myosuroides); experiment: as above; conditions: 10 days
Method in brief: as §1

corn (Zea mays) [13] = experiment: as above; conditions: 10 days
Method in brief: as §1

[14] = system: galium (catchweed bedstraw, Galium aparine); experiment: as above; conditions: 10 days
Method in brief: as §1

[15] = system: green foxtail (Setaria viridis); experiment: as above; conditions: 10 days
Method in brief: as §1

[16] = system: horseweed (Erigeron canadensis); experiment: as above; conditions: 10 days
Method in brief: as §1

kochia (Bassia scoparia) [17] = experiment: as above; conditions: 10 days
Method in brief: as §1

[18] = system: oat, wild (wild oat, Avena fatua); experiment: as above; conditions: 10 days
Method in brief: as §1

[19] = system: palmer (palmer amaranth, palmer pigweed, Amaranthus palmeri); experiment: as above; conditions: 10 days
Method in brief: as §1

[20] = system: ragweed (common ragweed, Ambrosia artemisiifolia); experiment: as above; conditions: 10 days
Method in brief: as §1

[21] = system: ryegrass, Italian (italian ryegrass, Lolium multiflorum); experiment: as above; conditions: 10 days
Method in brief: as §1

soybean (Glycine max) [22] = experiment: as above; conditions: 10 days
Method in brief: as §1

[23] = system: wheat (Triticum aestivum); experiment: as above; conditions: 10 days
Method in brief: as §1

[24] = system: barnyardgrass (Echinochloa crusgalli); experiment: Test B flooded paddy test, visual plant response rating 0-100; conditions: 250 g ai/ha, Flood, applied to paddy water, evaluated after 13 days
Method in brief: (§2)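 Treatment occurs at the 2-leaf stage by adding compound to floodwater standing 3 cm above the soil, a level kept for the whole test. Plants stay in the greenhouse 13 days before visual comparison with controls.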

[25] = system: ducksalad (Heteranthera limosa); experiment: as above; conditions: 250 g ai/ha, Flood, applied to paddy water, evaluated after 13 days
Method in brief: as §2

rice (Oryza sativa) = experiment: as above; conditions: 250 g ai/ha, Flood, applied to paddy water, evaluated after 13 days
Method in brief: as §2

[26] = system: sedge, umbrella (small-flower umbrella sedge, Cyperus difformis); experiment: as above; conditions: 250 g ai/ha, Flood, applied to paddy water, evaluated after 13 days
Method in brief: as §2

[27] = 31 g ai/ha, postemergence, 0 = no effect, 100 = complete control
[28] = Postemergence, 125 g ai/ha, 0 is no effect, 100 is complete control

SMILES: CC(C)OC(=O)C1=CCC(NC(=O)C2(C)CN(c3cc(F)cc(F)c3)C(=O)O2)C1 (centres unmarked) [Compound 5]
- Barnyardgrass plant response rating (0-100) ([1]; 31 g ai/ha): 0
- Barnyardgrass plant response rating (0 to 100 scale) ([1]; 125 g ai/ha): 100
- Blackgrass plant response rating (0-100) ([2]; 31 g ai/ha): 30
- Blackgrass plant response rating (0 to 100 scale) ([2]; 125 g ai/ha): 40
- Corn plant response rating (0-100) (corn (Zea mays) [3]; 31 g ai/ha): 0
- Corn plant response rating (0 to 100 scale) (corn (Zea mays) [3]; 125 g ai/ha): 50
- Foxtail, Green plant response rating (0-100) ([4]; 31 g ai/ha): 20
- Foxtail, Green plant response rating (0 to 100 scale) ([4]; 125 g ai/ha): 100
- Kochia plant response rating (0-100) (kochia (Bassia scoparia) [5]; 31 g ai/ha): 0
- Kochia plant response rating (0 to 100 scale) (kochia (Bassia scoparia) [5]; 125 g ai/ha): 90
- Oat, Wild plant response rating (0-100) ([6]; 31 g ai/ha): 20
- Oat, Wild plant response rating (0 to 100 scale) ([6]; 125 g ai/ha): 90
- Amaranth, Palmer plant response rating (0-100) ([7]; 31 g ai/ha): 20
- Amaranth, Palmer plant response rating (0 to 100 scale) ([7]; 125 g ai/ha): 100
- Ragweed plant response rating (0-100) ([8]; 31 g ai/ha): 0
- Ragweed plant response rating (0 to 100 scale) ([8]; 125 g ai/ha): 0
- Soybean plant response rating (0-100) (soybean (Glycine max) [9]; 31 g ai/ha): 0
- Soybean plant response rating (0 to 100 scale) (soybean (Glycine max) [9]; 125 g ai/ha): 60
- Wheat plant response rating (0-100) ([10]; 31 g ai/ha): 0
- Wheat plant response rating (0 to 100 scale) ([10]; 125 g ai/ha): 80
- Barnyardgrass plant response rating (0-100) [11, 27]: 100
- Barnyardgrass plant response rating (0 to 100 scale) [11, 28]: 100
- Blackgrass plant response rating (0-100) [12, 27]: 50
- Blackgrass plant response rating (0 to 100 scale) [12, 28]: 90
- Corn plant response rating (0-100) (corn (Zea mays) [13]; [27]): 60
- Corn plant response rating (0 to 100 scale) (corn (Zea mays) [13]; [28]): 100
- Galium plant response rating (0-100) [14, 27]: 80
- Galium plant response rating (0 to 100 scale) [14, 28]: 80
- Foxtail, Green plant response rating (0-100) [15, 27]: 30
- Foxtail, Green plant response rating (0 to 100 scale) [15, 28]: 90
- Horseweed plant response rating (0-100) [16, 27]: 10
- Horseweed plant response rating (0 to 100 scale) [16, 28]: 50
- Kochia plant response rating (0-100) (kochia (Bassia scoparia) [17]; [27]): 30
- Kochia plant response rating (0 to 100 scale) (kochia (Bassia scoparia) [17]; [28]): 80
- Oat, Wild plant response rating (0-100) [18, 27]: 90
- Oat, Wild plant response rating (0 to 100 scale) [18, 28]: 90
- Amaranth, Palmer plant response rating (0-100) [19, 27]: 40
- Amaranth, Palmer / Pigweed, Palmer plant response rating (0 to 100 scale) [19, 28]: 50
- Ragweed plant response rating (0-100) [20, 27]: 50
- Ragweed plant response rating (0 to 100 scale) [20, 28]: 70
- Ryegrass, Italian plant response rating (0-100) [21, 27]: 60
- Ryegrass, Italian plant response rating (0 to 100 scale) [21, 28]: 90
- Soybean plant response rating (0-100) (soybean (Glycine max) [22]; [27]): 60
- Soybean plant response rating (0 to 100 scale) (soybean (Glycine max) [22]; [28]): 70
- Wheat plant response rating (0-100) [23, 27]: 90
- Wheat plant response rating (0 to 100 scale) [23, 28]: 90
- Plant response rating, Barnyardgrass (0 to 100 scale, 0 is no effect and 100 is complete control) [24]: 65
- Plant response rating, Ducksalad (0 to 100 scale, 0 is no effect and 100 is complete control) [25]: 80
- Plant response rating, Rice (0 to 100 scale, 0 is no effect and 100 is complete control) (rice (Oryza sativa)): 20
- Plant response rating, Sedge, Umbrella (0 to 100 scale, 0 is no effect and 100 is complete control) [26]: 95
